Values joined by “and” are separate entries in the source; they are usually repeats but may differ in a detail not shown here. Identical values can stand only once.

Assay [1] relates to fmr1 (fragile X gene) Knock Out mice. Description: training/test exploration and P.I. in WT and fmr1 KO mice. It counts as in vivo. Set-up: training left / training right / training Total / test novel / test fam / test total: unit not given here.
Assay [2] deals with alcohol withdrawal associated anxiety. The following applies: in vivo; cited from earlier work.
The subject of assay [3] is youths with autistic disorder. The experiment in a line: 12-week single-blind placebo lead-in trial of acamprosate in youths with autistic disorder: behavioral outcome measures. It counts as in vivo, human. The protocol:
One study was a 12-week single-blind, placebo-controlled trial of acamprosate in 12 youths with autistic disorder was conducted. The primary outcome measured was the Clinical Global Impression Improvement (CGI-I) scale with several additional behavioral secondary outcome measures employed. In this study, secreted amyloid precursor protein (sAPP) was measured pre- and post acamprosate treatment as blood biomarker assay Result: Twelve subjects (mean age=10.4 yrs.) entered the study and nine subjects completed a two week placebo lead-in and entered active treatment (mean final dose=1,073 mg/day). Six of nine (67%) subjects receiving acamprosate were judged treatment responders with a CGI-I score of 1 “very much improved” or 2 “much improved”. […] Among secondary outcome measures analyzed, significant acamprosate-associated improvement was noted on measures of social behavior and hyperactivity. Acamprosate use was also associated with reductions in sAPP levels.
The first project enrolled 12 youth aged 5 to 17 years with fragile X syndrome and comorbid ASD in a 10-week open-label trial of acamprosate. The second project enrolled 12 youth aged 5 to 17 years diagnosed with idiopathic ASD in a 12-week single-blind placebo lead-in study of acamprosate. In both projects, concomitant dosing of psychotropic drugs remained stable throughout study. In each project, pre- and post-acamprosate treatment plasma levels of sAPP total and sAPPα were obtained. All APP assay samples were collected, chilled, and walked within 2 hours of blood draw to the lab for analysis. Plasma sAPP total and sAPPα were determined separately in serum using the ELISA kit obtained from Immuno Biological Laboratories (IBL, Gumma, Japan). The ELISA kit is validated to measure levels of sAPPα in human samples and able to detect as low as 0.09 ng/ml of sAPPα in a typical sample, with only 0.3% cross-reactivity to sAPP. Levels of sAPP total and sAPPα in plasma were reported in nanograms per milliliter (ng/mL). Statistical analyses of pre- and post-acamprosate sAPP total and sAPPα levels were conducted using paired T-tests. Finally an exploratory post-hoc analysis of potential correlation between percent change in sAPP total or sAPPα and percent change in scores on the Aberrant Behavior Checklist Social Withdrawal/Lethargy subscale (ABC-SW) was conducted. The ABC-SW measures social impairment which is a core symptom domain of ASD. Post-hoc analysis was done with Spearman correlation calculations. All data was analyzed in IBM SPSS Version 20.
A 12-week single-blind, placebo-controlled trial of the effect of acamprosate in the treatment of 12 youths with autistic disorder aged 5 to 17 years was carried out. In order to pilot test use of acamprosate in youth with autism targeting core social impairment, was conducted. All subjects and their family members were blinded to treatment status. All subjects participated in a 2 week placebo-lead-in phase prior to 10 weeks of treatment with acamprosate. For this project, enteric coated commercially available 333 mg acamprosate pills were over-encapsulated and identical matching placebo manufactured for the project. Placebo-responders, defined by a Clinical Global Impressions Improvement scale (CGI-I) score of 1 “very much improved” or 2 “much improved” (ratings anchored to core social deficits) at week 2 were asked to exit the study. During active treatment with acamprosate, dosing was increased in 333 mg increments per week over the first six weeks of active treatment to a maximum dose of 1,332 mg/day (weight<5 60 kg) or 1,998 mg/day (weight>60 kg). During the final four weeks of active drug treatment, subjects were maintained on a stable highest tolerated (optimal) dose. The primary outcome measure was the clinician-rated CGI-I anchored to symptoms of social impairment. […]

Assay [4] deals with NMDA glutamate receptor. To be noted: animal studies; cited from earlier work.
Assay [5] has as its system youths symptomatic for an autistic disorder. The following applies: mean dose 1,110 mg/day, 10 to 30 weeks; cited from earlier work.
Assay [6] relates to extracellular dopamine. The following applies: rats; dependent on glycine receptor activation; cited from earlier work.

For `CC(=O)NCCCS(=O)(=O)O` [Acamprosate, 3-Acetamidopropane-1-sulfonic acid], the “training P.I. average (mean)” value in assay [1] (KO Acam group, KO Sal 0.022521, WT Sal 0.193298) is given as 0.06358. Also, the “test P.I. average (mean)” value in assay [1] (KO Acam group, KO Sal 0.134837, WT Sal 0.167142) amounted to 0.2684. For the same molecule, in assay [1] (KO Acam, individual mice), the “test P.I.” value was 0.3192 and 0.2294 and 0.5255 and 0.2717 and 0.3025 and −0.1161 and 0.3463; the test fam was 24.3 and 40.3 and 28.38 and 28.7 and 32.28 and 47.59 and 30.2; the test novel was 47.09 and 64.3 and 91.23 and 50.11 and 60.28 and 37.69 and 62.2; the test total was 71.39 and 104.6 and 119.61 and 78.81 and 92.56 and 85.28 and 92.4. Moreover, in assay [1] (KO Acam, individual mice), the “training P.I.” value is 0.1811 and 0.1143 and 0.08976 and −0.105 and 0.1648 and −0.1088 and 0.1088; the “training Total” value is 89.27 and 135.74 and 82.44 and 97.27 and 78.95 and 159.13 (2×); the training left was 52.72 and 75.63 and 44.92 and 43.53 and 45.98 and 70.91 and 88.22; the training right is 36.55 and 60.11 and 37.52 and 53.74 and 32.97 and 88.22 and 70.91. Moreover, the “alcohol withdrawal associated anxiety effects” value in assay [2] is “reduce alcohol withdrawal associated anxiety effects”. Besides, the “treatment responders (CGI-I score of 1 or 2)” value in assay [3] (idiopathic ASD, nine subjects receiving acamprosate, mean final dose 1,073 mg/day) came to 67%. For the same molecule, in assay [3] (idiopathic ASD, nine subjects, last observation carried forward), the “mean CGI-I at last visit” value is reported as 2. Also, in assay [3] (idiopathic ASD, baseline 4.22+/-0.4, p=0.013), the CGI-S at endpoint is reported as 3.7+/−0.5. The “ABC Lethargy/Social Withdrawal subscale (ABC-SW) at endpoint” value in assay [3] (idiopathic ASD, baseline 14.1+/-8.5, p=0.019) is reported as 10.0+/−8.4. Also, in assay [3] (idiopathic ASD, baseline 25.4+/-12.6, p=0.005), the “ABC Hyperactivity subscale at endpoint” value is recorded as 16.6+/−12.4. Further, the ADHD-RS at endpoint in assay [3] (idiopathic ASD, baseline 29.5+/-10.4, p=0.002) is given as 20.75+/−9.7. In assay [3] (idiopathic ASD, baseline 107+/-28, p=0.002), the “SRS total raw score at endpoint” value is 91.4+/−30. Also, the “youth judged responders to acamprosate (of those treated)” value in assay [3] (youth with idiopathic ASD) is recorded as 6 of 9. The “action at the NMDA glutamate receptor” value in assay [4] is “bind and act as an antagonist at the NMDA glutamate receptor”. Moreover, the “youths judged treatment responders” value in assay [5] is given as “five of six”. The “extracellular dopamine levels in the nucleus accumbens” value in assay [6] is “elevates extracellular dopamine levels in the nucleus accumbens”.

These data come from patent US11733243B2, “Use of acamprosate to modulate ERK1/2 activation in animal models for FXS and ASD and individuals diagnosed with FXS and ASD” (Indiana University Research and Technology Corporation, priority 2013, dated 2023).
